Source: patent publication US6686345B2, “DNA-cleaving antitumor agents” (Research Development Foundation, priority 1998, dated 2004)

How the values were obtained:
[1] = Stability of heterocyclic salts in methanol (CD3OD) monitored by NMR; settings: solution in CD3OD monitored by NMR
Source text: The stability of solutions of these salts in CD3OD can be monitored by NMR.

supercoiled plasmid DNA = experiment: DNA cleavage of supercoiled plasmid DNA by aza-enediyne heterocycles (thiazolium and benzothiazolium salts); type: biochemical; settings: 50 μM bp DNA, TRIS pH 8.0, 24 hrs at 37° C.; for DNA Cleavage 100 μM: 100 μM compound; for DNA Cleavage 1 mM: 1 mM compound
Experimental: The DNA cleavage efficiency of aza-enediyne heterocycles is determined by incubating the azaenediynes with supercoiled plasmid DNA. The supercoiled DNA was diluted to 50 μM bp in 50 mM TRIS buffer at pH 8.0. […] DNA topoisomers were separated by electrophoresis (0.8% agarose, 1× TBE, 82V, 1 hr 10 min) and stained with ethidium bromide (0.25 μg/mL) and images were analyzed by phosphorimger.
(§1) The normalized percent cleavage of DNA is determined as: [formula]
DNA cleavage normalized for the small amount (10-25%) of nicked relaxed DNA in control samples (DMSO-only treated DNA) is reported in Table 6.

[2] = system: supercoiled ΦX174 plasmid DNA; experiment: DNA cleavage by 2-alkynyl pyridinium triflate salts; type: biochemical, ΦX174 Phage; settings: for Normalized Percent Cleavage of ΦX174 Phage (RF-1) DNA: 24 hrs at 37° C., pH 8.0
Experimental: as §1
The DNA cleavage efficiency of these azaenediyne heterocycles was determined by incubation with aqueous solutions of supercoiled ΦX174 plasmid DNA. The supercoiled DNA was diluted to 50 μM bp in 50 mM TRIS pH 8.0. The reaction mixtures containing compound and 13% v/v DMSO-d6 were incubated for 24 hrs at 37° C. DNA topoisomers were separated by agarose gel electrophoresis (1 X TBE, 90V, 1 hr), stained with ethidium bromide (0.25 μg/mL), and the images were analyzed on a fluorimager. DNA cleavage results are reported as normalized percent cleavage in Table 7 as for the thiazolium and benzothiazolium salts in Example 8.

[3] = Thermal isomerization (aza-Bergman rearrangement) of C,N-dialkynylimine; type: physicochemical; settings: slower than 5a to 7a
Source text: A general synthetic route to C,N-dialkynylimines (3-aza-enediynes) 5a,b is depicted in FIG. 1. These imines are isolated as air stable yellow oils after chromatography. When a benzene solution of 5a is heated under reflux overnight, nitrile 7a is produced in 88% yield (FIG. 2). The nitrile 7a is isolated as a single stereoisomer, which is assigned the (Z)-geometry by comparison with authentic (E)-7a. Authentic (E)-7a was synthesized by the palladium-catalyzed coupling of 1-propynyltributyltin and the (E)-enol triflate of 2-cyano-2-phenylacetophenone. Heating a solution of imine 5a in benzene containing a large excess of 1,4-cyclohexadiene (1,4-chd) as a hydrogen atom trap, or in neat 1,4-chd at 150° C. for two hours affords the nitrile 7a as the only isolable product. The imine 5b contains a pendent double bond that could serve as an intramolecular trap for the putative diradical intermediate 6 (FIG. 2). We find that heating a benzene solution of 5b containing a large excess of 1,4-chd affords only the nitrile 7b in nearly quantitative yield. In none of these reactions were any products (e.g. 8 or 10) which would arise from trapping of the 2,5-ddp intermediate 6 detected.
The ^t½ for the Bergman cyclization of the corresponding (Z)-1,6-diphenylhex-3-ene-1,5-diyne to o-terphenyl is about 1000-fold slower than the rearrangement of 5a to 7a.

Stability in MeOH (Initial Decomposition) [1] | SMILES | DNA Cleavage 1 mM (supercoiled plasmid DNA) [%] | other results
˜30 min | C#CC[n+]1c(C#Cc2ccccc2)sc2ccccc21 | 100 | DNA Cleavage 100 μM (supercoiled plasmid DNA): 46%
0.333 to 0.5 h | C#CC[n+]1c(C#Cc2ccc(C)cc2)sc2ccccc21 | 100 | 
0.167 to 0.25 h | C[n+]1c(C#Cc2ccccc2)sc2ccccc21 | 96 | 
 | C#CC[n+]1c(C#C[Si](C)(C)C)sc2ccccc21 | 100 | 
 | C#CC[n+]1c(C#C[Si](C(C)C)(C(C)C)C(C)C)sc2ccccc21 | 0 | 
>24 h | C(#Cc1nc2ccccc2s1)c1ccccc1 | 5 | 
>24 h | C#CC[n+]1cccnc1C#Cc1ccccc1 | 43.3 | DNA Cleavage 100 μM (supercoiled plasmid DNA): 14.4%
>24 h | C#CC[n+]1c(-c2ccccc2)c(-c2ccccc2)n(C)c1C#Cc1ccccc1 | 10 | DNA Cleavage 100 μM (supercoiled plasmid DNA): 1.4%
 | C[n+]1ccsc1C#Cc1ccccc1 | 27 | 
>24 h | C(#Cc1nccs1)c1ccccc1 | 1.5 | 
 | C#CC[n+]1ccccc1C#C[Si](C(C)C)(C(C)C)C(C)C [1-prop-2-ynyl-2[(triisopropyl-silanyl)-ethynyl]-pyridinium triflate] |  | Normalized Percent Cleavage of ΦX174 Phage (RF-1) DNA ([2]; 1 μM): 0%; Normalized Percent Cleavage of ΦX174 Phage (RF-1) DNA ([2]; 10 μM): 8.1%; Normalized Percent Cleavage of ΦX174 Phage (RF-1) DNA ([2]; 50 μM): 49%; Normalized Percent Cleavage of ΦX174 Phage (RF-1) DNA ([2]; 100 μM): 77%; DNA cleavage (in words) ([2]; ΦX174 DNA, pyridinium series): cleaves DNA less efficiently than all of the other 2-alkynyl substituted analogs
 | C#CC[n+]1ccccc1C#C[Si](C)(C)C [1-prop-2-ynyl-2[(trimethyl-silanyl)-ethynyl]-pyridinium triflate] |  | Normalized Percent Cleavage of ΦX174 Phage (RF-1) DNA ([2]; 1 μM): 9%; Normalized Percent Cleavage of ΦX174 Phage (RF-1) DNA ([2]; 10 μM): 34%; Normalized Percent Cleavage of ΦX174 Phage (RF-1) DNA ([2]; 50 μM): 73%; Normalized Percent Cleavage of ΦX174 Phage (RF-1) DNA ([2]; 100 μM): 89%
 | C(#Cc1ccccc1)/C=C\C#Cc1ccccc1 [(Z)-1,6-diphenylhex-3-ene-1,5-diyne] |  | t½ for the Bergman cyclization relative to rearrangement of 5a to 7a [3]: about 1000 fold
